Experimental data published in PMC2323292, “Immunodominant Tuberculosis CD8 Antigens Preferentially Restricted by HLA-B” (PLoS Pathogens, 2007).
Like-named read-outs stand apart in the source and are kept apart here.

Experiments:
CD8+ T cells [1] = assay: Ex vivo IFN-γ ELISPOT, CD8+ T cells with peptide-pulsed autologous DCs; type: cell-based, human; details: donor 443 (LTBI), linear regression
CD8+ T cells [2] = details: donor 160; ex vivo, autologous DCs pulsed with epitope; clones published previously ref 17; cited from earlier work
Text: Table 3 Summary of CD8+ T Cell Epitopes Identified | column: Epitope-Specific T Cells^a

Sequence | Epitope-Specific T Cells (CD8+ T cells [1]) | Epitope-Specific T Cells (CD8+ T cells [2])
ELPQWLSANR | <10 IFN-γ spot forming units per 2 | –
RADEEQQQAL | – | 120 IFN-γ spot forming units per 2
